Key:
[1] = Flow rheometry test of PCL-PVAc-PEG/Vitamin E composites; format: physicochemical; details: flow mode, 20±1° C., shear stress 0.60 to 59.68 Pa
Experimental: Rheological Characterization. […] The viscoelastic properties of the composites were evaluated by measuring their shear rate under an applied shear stress. The viscous response, or the loss modulus, is the loss of the rigid structure of the system as a result of the applied stress over strain (G″). The recovery of the polymeric dispersions when lifting the applied stress is known as the elastic (G′) or storage modulus. Tangent of the phase angle (tan δ) is the ratio of the viscous property of the dispersion (G″) to its elastic property (G′). Tan δ is a measure of the relative contribution of the viscous component to the solid characteristics of the material. Materials behave increasingly like a liquid as the tan δ value increases above 1, whereas they behave increasingly like a gel as the tan δ value decreases below 1 [13].
The characterization of the rheological properties of vitamin E and PCL-PVAc-PEG/Vitamin E composites was carried out with an Advanced AR 2000 controlled stress/controlled rate rheometer (TA Instruments, New Castle, Del., USA) with a 2o, 40 mm cone-plate geometry and a 61 μm gap between the plates. Approximately 0.6 mL of each sample was carefully placed on the lower plate. […]
Flow Rheometry Test. The flow behavior and complex viscosity (η) of the PCL-PVAc-PEG/Vitamin E composites were measured in flow mode at 20±1° C. under an applied shear stress from 0.60 to 59.68 Pa. […]

[2] = Texture analysis of PCL-PVAc-PEG/Vitamin E composites (hardness, adhesiveness, cohesiveness); format: physicochemical; details: probe compression 2 mm/s to 4 mm depth, 20±1° C.
Experimental: Texture Analysis. Texture analysis is a technique that has been widely utilized for the mechanical characterization of food and pharmaceutical products. The mechanical characteristics of the PCL-PVAc-PEG/Vitamin E composites were determined by using a TA-XT plus texture analyzer (Texture Technologies Corp and Stable Micro Systems, Ltd, Scarsdale, N.Y., USA) equipped with a 50 kg load cell and fitted with a 35 mm flat-faced stainless-steel cylindrical probe. Briefly, 10 g sample of each composite was placed in a 25 mL jacketed reaction beaker. Before analysis, air bubbles were removed from the samples by maintaining the reaction beaker at 80° C. for approximately 30 minutes. Samples were then allowed to equilibrate to room temperature for 24 h. After equilibration, samples were tested for their texture properties by compressing the probe into the surface of each sample at a rate of 2 mm/s to a depth of 4 mm, after which the probe was retracted at a rate of 2 mm/s. Composite Hardness, adhesiveness, and cohesiveness were then estimated from the generated force-time plots. At least three replicate analyses were carried out for each composite using a freshly prepared sample. Data collection and calculation were determined by the Texture Exponent 6.1.7.0 software package.
Texture Analysis. Texture profile analysis (TPA) of the PCL-PVAc-PEG/Vitamin E composites was carried out to study their compressional flow properties. It provided valuable information about the impact of PCL-PVAc-PEG load on the hardness, adhesiveness, and cohesiveness of the composites (FIG. 9). These characteristics quantify sample deformation under compression. Hardness describes the stress/work required to remove the sample from the container and to subsequently apply it to the site of application. It is defined as the force required to acquire a given deformation which is the same as the maximum peak force during compression. Hardness should be low in order to allow the material to be easily removed from the container. […]

[3] = 24° C.; cited from earlier work

Compound: Cc1c(C)c2c(c(C)c1O)CCC(C)(CCCC(C)CCCC(C)CCCC(C)C)O2 (racemic) [pure vitamin E, DL-α-Tocopherol]
- Viscosity [1]: 5.9 Pa·s
- Adhesiveness [2]: 0.01 kg·s
- Cohesiveness [2]: 0.02 kg·s
- Hardness [2]: 0.021 kg
- reported viscosity [3]: 2480 centipoise

— US20200354562A1, “FILMS AND COMPOSITES AND METHODS OF PRODUCTION AND USE” (Texas Tech University System, priority 2018, published 2020)
